In ChEMBL document CHEMBL1201862, “PubChem BioAssay data set” (2004):
Activity calls are given as the source filed them.

Key:
NADPH oxidase 1 = NADPH oxidase 1 (Homo sapiens, UniProt Q9Y5S8); assay: Late-stage luminescence-based cell-based dose response assay to identify inhibitors of NADPH oxidase 1 (NOX1): Synthesized analogs.; format: functional
[1] = target: G-protein coupled receptor 55 (Homo sapiens, UniProt Q9Y2T6); assay: selective activators of receptor GPR55 – imaging, U2OS cells, beta-arrestin-GFP redistribution, primary screen (AID 1961); format: functional
[2] = target: T1, Aryl hydrocarbon receptor (Homo sapiens, UniProt P35869); assay: Luminescence-based cell-based high throughput dose response assay for activators of the Aryl Hydrocarbon Receptor (AHR). [Related pubchem assays: 2796 (Primary screen (AHR activators in singlicate)), 2845 (Confirmation screen (AHR activators in triplicate)), 434939 (Counterscreen (PXR activators in triplicate)), 2804 (Summary (AHR activators))]; format: ADME
T1 sequence (P35869 whole entry): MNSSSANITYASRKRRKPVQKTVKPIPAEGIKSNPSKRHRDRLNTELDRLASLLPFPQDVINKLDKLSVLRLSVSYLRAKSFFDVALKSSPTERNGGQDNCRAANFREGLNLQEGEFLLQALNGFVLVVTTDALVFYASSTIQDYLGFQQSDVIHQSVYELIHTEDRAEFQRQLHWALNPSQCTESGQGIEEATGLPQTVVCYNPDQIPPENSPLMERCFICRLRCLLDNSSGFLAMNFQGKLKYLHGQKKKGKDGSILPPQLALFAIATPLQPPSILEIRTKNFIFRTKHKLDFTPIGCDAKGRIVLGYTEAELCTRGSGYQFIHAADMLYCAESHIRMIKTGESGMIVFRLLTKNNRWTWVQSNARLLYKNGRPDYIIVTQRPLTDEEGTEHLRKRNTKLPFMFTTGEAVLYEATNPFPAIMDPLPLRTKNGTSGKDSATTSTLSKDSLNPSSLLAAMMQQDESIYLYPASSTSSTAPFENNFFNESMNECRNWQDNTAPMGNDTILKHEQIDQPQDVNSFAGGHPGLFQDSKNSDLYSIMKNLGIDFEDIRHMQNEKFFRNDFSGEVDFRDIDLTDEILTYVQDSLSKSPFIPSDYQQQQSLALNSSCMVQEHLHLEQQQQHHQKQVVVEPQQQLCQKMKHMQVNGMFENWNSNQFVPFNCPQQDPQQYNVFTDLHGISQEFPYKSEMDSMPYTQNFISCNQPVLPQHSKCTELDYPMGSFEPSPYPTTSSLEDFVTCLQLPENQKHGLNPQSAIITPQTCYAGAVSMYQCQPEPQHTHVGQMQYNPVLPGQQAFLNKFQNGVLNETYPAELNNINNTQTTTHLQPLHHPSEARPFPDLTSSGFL

[3] = target: Mitogen-activated protein kinase 10 (Homo sapiens, UniProt P53779); assay: Dose response biochemical screening assay for inhibitors of c-Jun N-Terminal Kinase 3 (JNK3). [Related pubchem assays: 746 ]
[4] = target: Dual specificity tyrosine-phosphorylation-regulated kinase 1A (Rattus norvegicus, UniProt Q63470); format: biochemical, Homo sapiens
Large T antigen = Large T antigen (Simian virus 40, UniProt P03070); format: functional, Betapolyomavirus macacae;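 also: Confirmatory-stage PubChem screen for compounds that inhibit SV40 T antigen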
[5] = target: Induced myeloid leukemia cell differentiation protein Mcl-1 (Homo sapiens, UniProt Q07820); format: functional
[6] = target: Eukaryotic translation initiation factor 4E (Mus musculus, UniProt P63073); assay: blockers of eIF4G binding by eIF4E – biochemical, TR-FRET, dose response (AID 855); format: functional;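 also: potency for disrupting eIF4E binding to eIF4GI seen as loss of FRET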
Hexokinase HKDC1 = target: T2, Hexokinase HKDC1 (Homo sapiens, UniProt Q2TB90); assay: inhibition of HKDC1 glucose phosphorylation – biochemical, W721R variant, dose response (AID 504729); format: functional
T2 sequence (Q2TB90 whole entry): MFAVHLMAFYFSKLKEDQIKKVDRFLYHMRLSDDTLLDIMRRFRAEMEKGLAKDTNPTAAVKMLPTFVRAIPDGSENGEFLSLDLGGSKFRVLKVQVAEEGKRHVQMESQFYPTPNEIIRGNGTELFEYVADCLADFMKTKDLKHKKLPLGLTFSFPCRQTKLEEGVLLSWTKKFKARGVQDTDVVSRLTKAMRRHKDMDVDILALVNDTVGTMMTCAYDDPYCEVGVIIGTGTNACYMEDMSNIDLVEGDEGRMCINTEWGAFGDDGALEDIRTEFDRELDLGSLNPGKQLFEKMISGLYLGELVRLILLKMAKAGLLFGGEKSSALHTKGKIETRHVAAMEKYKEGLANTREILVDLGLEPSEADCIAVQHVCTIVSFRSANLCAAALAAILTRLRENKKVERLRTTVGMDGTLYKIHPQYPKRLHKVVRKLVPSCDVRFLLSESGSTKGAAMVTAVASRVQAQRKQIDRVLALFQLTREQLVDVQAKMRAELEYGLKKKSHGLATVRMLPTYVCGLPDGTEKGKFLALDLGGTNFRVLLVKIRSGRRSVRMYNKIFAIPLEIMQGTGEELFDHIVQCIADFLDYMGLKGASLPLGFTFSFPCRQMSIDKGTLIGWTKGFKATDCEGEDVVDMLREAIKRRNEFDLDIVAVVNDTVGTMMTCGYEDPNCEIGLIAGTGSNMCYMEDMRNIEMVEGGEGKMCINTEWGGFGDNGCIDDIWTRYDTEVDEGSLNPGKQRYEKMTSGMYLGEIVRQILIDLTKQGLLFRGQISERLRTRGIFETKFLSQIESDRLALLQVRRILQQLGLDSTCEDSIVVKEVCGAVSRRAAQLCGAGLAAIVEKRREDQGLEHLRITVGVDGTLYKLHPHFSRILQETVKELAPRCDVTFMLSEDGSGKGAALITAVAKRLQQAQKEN

Protein Tat = Protein Tat (Human immunodeficiency virus type 1 group M subtype B (isolate HXB2)(HIV-1), UniProt P04608); format: functional;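 also: tat binding to TAR RNA read out by fluorescence polarization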
Sequence of Protein Tat (P04608 whole entry): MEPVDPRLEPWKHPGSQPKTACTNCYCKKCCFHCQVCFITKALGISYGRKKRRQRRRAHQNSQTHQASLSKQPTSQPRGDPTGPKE

Sequence of Large T antigen (P03070 whole entry): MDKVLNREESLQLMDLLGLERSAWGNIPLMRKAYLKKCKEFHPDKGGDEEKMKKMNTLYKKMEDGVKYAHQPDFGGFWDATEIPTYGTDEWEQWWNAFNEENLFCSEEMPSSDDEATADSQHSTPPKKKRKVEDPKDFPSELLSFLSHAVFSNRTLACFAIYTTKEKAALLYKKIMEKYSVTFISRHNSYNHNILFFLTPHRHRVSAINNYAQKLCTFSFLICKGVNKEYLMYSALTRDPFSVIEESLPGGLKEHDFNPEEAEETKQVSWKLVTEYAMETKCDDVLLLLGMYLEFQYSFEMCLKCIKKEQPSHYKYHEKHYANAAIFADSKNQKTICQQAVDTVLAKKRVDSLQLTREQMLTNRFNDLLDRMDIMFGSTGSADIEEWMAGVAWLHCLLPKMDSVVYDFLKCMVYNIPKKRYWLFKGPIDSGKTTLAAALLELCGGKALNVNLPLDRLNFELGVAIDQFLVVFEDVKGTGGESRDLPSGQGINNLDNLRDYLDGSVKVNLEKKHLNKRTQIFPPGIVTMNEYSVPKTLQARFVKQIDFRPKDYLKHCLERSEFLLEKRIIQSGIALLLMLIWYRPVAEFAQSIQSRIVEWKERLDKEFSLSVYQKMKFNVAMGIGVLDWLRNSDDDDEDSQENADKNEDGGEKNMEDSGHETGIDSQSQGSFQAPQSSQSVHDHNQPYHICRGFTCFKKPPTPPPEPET
Sequence of Induced myeloid leukemia cell differentiation protein Mcl-1 (Q07820 whole entry): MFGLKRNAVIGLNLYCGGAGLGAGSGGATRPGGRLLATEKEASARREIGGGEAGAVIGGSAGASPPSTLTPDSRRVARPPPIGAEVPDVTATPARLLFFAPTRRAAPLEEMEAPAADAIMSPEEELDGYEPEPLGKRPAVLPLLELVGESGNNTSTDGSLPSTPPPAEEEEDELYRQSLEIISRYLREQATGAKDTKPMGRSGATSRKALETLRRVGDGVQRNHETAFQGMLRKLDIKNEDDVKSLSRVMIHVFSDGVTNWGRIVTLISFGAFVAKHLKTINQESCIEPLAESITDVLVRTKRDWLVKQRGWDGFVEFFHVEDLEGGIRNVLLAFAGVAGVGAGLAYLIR
Sequence of Eukaryotic translation initiation factor 4E (P63073 whole entry): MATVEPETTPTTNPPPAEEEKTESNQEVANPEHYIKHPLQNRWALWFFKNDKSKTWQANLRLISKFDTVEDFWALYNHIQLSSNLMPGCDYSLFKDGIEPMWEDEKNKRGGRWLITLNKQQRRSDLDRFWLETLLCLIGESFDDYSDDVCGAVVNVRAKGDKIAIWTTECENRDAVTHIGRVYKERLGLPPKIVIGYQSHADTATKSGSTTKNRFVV
Sequence of Mitogen-activated protein kinase 10 (P53779 whole entry): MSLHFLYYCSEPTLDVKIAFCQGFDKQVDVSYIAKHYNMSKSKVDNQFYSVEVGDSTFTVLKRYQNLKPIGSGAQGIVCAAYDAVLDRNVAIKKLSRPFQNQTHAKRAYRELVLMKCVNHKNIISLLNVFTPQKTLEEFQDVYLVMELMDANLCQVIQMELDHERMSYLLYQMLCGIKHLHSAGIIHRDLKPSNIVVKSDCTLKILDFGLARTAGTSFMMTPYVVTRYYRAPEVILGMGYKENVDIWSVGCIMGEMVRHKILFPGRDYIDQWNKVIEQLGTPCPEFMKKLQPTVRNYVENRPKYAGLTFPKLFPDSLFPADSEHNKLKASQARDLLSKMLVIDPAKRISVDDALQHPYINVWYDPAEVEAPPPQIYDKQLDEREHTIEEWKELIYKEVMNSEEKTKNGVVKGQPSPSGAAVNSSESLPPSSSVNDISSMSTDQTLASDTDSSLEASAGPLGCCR
Sequence of NADPH oxidase 1 (Q9Y5S8 whole entry): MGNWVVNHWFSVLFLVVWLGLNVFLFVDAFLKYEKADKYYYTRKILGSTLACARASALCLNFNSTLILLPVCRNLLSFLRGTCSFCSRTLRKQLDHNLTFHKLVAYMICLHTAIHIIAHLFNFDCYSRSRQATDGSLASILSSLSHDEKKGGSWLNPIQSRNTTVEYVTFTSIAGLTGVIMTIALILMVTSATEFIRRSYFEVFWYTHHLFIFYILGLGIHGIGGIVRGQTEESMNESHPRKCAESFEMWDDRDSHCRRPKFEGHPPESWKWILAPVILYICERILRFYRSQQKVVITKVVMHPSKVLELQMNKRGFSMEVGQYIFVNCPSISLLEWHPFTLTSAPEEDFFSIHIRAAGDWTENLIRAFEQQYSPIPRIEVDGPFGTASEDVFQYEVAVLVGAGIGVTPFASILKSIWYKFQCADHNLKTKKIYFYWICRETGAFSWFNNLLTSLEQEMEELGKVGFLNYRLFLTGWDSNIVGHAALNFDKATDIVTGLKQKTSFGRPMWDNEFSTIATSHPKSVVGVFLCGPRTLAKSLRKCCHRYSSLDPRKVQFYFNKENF
Sequence of G-protein coupled receptor 55 (Q9Y2T6 whole entry): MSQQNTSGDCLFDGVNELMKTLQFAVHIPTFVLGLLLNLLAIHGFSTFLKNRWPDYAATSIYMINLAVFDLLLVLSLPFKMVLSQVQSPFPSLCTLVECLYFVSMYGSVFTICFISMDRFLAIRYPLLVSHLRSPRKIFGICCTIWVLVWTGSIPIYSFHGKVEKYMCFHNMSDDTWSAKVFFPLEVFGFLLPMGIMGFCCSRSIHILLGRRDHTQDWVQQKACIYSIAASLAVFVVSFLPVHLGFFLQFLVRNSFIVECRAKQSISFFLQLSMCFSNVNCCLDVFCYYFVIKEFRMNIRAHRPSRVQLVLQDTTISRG

O=C(CSc1nc2ccccc2o1)N1c2ccccc2Sc2ccc(C(F)(F)F)cc21
IC50 (NADPH oxidase 1): > 50 µM (not active) | EC50 [1]: > 32 µM (inactive)

Cc1ccc(-n2c(=O)[nH]cc(C(=O)Nc3ccc4c(c3)OCO4)c2=O)cc1C
EC50 [2]: 7.75 µM (active)

C/C(=N/Cc1cccnc1)C1=C(O)c2ccccc2C1=O
IC50 [3]: 20 µM (not active) | AC50 [4]: 12.9 µM (active)

O=C1NC(=S)N(c2ccc(F)cc2)C(=O)/C1=C\c1ccoc1
IC50 (Large T antigen): 12.8 µM (active) | IC50 [5]: 1.53 µM (active) | IC50 [6]: 50 µM (inactive) | IC50 (Hexokinase HKDC1): 10.7 µM (active) | IC50 (Protein Tat): > 25 µM (active)
